Values quoted from earlier work in patent US8410057B2, “Method of inducing T cell apoptosis by administering Altered Peptide Ligand” (Centro de Ingenieria Genetica y Biotecnologia, priority 2008, dated 2013).

Test system: monocytes and activated lamina propria T cells
Details: Crohn's disease patients; Van den Brande et al. 2003

Row | Substance | induction of apoptosis
1 | Etanercept | does not induce cell apoptosis
2 | infliximab: chimeric monoclonal antibody that binds to and neutralizes free and bound TNFα | induce apoptosis of monocytes and activated lamina propria T cells
